Results on 30 compounds are retold here after patent publication US9855268B2, “Triazolo[4,5-d]pyrimidine derivatives” (Merck Patent GmbH, priority 2013, dated 2018).

Where a name gives a salt, the structure may show the parent alone.

The target in one test is GSK3α(h) (Homo sapiens, UniProt P49840). The test can be described thus: GSK3α radiometric kinase assay (33P-ATP, phospho GS2 peptide). The test is classed as biochemical. Particulars: read-out: IC50 GSK3α (enzyme assay). Here is the method:
GSK3α(h) is incubated with 8 mM MOPS pH 7,0, 0,2 mM EDTA, 20 μM
[…](p)EDEEE (phosphor GS2 peptide), 10 mM Mg-acetate and [gamma-33P-ATP](specific activity approx. 500 cpm/Pmol, concentration as required). The reaction is initiated by the addition of the MgATP. After incubation for 40 minutes at the room temperature, the Reaction is stopped by the addition of 3% phosphoric acid solution. 10 μL of reaction is then spotted onto a P30 filtermat and washed three times for 5 minutes in 50 mM phosphoric acid and once in methanol prior to drying and scintillation counting.

A further test concerns the target GCN2 (Homo sapiens, UniProt Q9P2K8). In words: GCN2 enzyme assay (TR-FRET Lanthascreen, GFP-eIF2alpha phosphorylation). Type of test: biochemical. Particulars: 10 μM ATP, 80 nM GFP-eIF2a, 30 nM GCN2. An outline of the steps:
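Phosphorylation of GFP-eIF2alpha (80 nM) by GCN2 run at room temperature with 10 μM ATP. After EDTA quench, product quantified by Lanthascreen TR-FRET (antibody–GFP complex, 340 nm excitation).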

Sequence of GSK3α(h) (P49840 whole entry): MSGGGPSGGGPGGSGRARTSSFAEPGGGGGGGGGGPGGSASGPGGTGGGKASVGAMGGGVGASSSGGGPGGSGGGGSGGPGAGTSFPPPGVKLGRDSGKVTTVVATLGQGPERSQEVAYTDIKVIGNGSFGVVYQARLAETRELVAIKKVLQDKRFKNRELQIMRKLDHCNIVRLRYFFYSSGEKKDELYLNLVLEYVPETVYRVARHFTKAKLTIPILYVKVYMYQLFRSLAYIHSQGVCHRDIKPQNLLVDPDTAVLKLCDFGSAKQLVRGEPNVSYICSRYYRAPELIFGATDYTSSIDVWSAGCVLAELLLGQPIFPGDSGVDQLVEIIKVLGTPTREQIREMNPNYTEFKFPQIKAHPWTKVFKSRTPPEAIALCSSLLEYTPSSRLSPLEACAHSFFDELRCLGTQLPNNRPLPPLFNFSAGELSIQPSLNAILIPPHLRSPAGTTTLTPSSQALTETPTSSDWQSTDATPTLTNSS
Sequence of GCN2 (Q9P2K8 whole entry, species assumed): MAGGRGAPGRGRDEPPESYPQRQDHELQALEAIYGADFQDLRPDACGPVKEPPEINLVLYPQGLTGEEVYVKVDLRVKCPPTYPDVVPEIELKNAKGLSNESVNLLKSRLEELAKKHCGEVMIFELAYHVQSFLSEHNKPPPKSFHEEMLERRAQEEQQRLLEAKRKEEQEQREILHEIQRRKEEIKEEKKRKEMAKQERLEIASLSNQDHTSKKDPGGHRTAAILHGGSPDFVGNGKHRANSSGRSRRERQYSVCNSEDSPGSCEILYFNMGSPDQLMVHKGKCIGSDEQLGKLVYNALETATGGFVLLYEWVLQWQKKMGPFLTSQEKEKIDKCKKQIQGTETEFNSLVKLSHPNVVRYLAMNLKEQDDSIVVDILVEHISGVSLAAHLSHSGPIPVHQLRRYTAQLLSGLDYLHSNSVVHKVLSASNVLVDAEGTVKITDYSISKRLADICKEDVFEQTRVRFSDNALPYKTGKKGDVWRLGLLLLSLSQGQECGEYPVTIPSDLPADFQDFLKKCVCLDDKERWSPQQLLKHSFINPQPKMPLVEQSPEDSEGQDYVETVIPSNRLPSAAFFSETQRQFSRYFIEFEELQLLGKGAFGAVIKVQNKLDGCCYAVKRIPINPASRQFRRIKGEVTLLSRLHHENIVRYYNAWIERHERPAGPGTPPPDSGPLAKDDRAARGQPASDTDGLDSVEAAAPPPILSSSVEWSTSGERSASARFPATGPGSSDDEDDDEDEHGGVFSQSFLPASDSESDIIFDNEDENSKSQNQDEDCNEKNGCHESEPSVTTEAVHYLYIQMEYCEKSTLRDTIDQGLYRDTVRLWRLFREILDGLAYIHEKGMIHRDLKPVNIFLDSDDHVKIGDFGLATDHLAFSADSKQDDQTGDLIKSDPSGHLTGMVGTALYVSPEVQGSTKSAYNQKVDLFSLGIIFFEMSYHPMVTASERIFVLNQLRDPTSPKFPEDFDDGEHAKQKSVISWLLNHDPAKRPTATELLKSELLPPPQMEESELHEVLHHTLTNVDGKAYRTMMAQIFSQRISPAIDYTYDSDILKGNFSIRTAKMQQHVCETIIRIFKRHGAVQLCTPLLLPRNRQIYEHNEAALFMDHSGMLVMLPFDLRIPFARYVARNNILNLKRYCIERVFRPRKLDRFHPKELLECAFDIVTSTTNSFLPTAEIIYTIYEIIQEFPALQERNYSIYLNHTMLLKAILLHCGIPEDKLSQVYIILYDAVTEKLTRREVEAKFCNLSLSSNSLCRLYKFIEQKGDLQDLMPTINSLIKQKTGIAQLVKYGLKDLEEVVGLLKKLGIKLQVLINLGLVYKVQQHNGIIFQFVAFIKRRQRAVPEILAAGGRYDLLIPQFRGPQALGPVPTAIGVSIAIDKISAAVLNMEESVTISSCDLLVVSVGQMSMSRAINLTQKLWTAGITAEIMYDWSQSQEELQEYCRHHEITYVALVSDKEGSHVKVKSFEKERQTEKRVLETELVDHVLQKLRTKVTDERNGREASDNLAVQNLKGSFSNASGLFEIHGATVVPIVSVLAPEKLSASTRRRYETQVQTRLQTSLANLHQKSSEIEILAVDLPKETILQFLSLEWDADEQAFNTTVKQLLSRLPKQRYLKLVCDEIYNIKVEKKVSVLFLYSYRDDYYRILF

On to `NC(=O)[C@H]1CC[C@@H](Nc2ncc3nnn(-c4ccc(N5CCCC5)cc4)c3n2)C1` [A138, (1S,3R)-3-[3-(4-pyrrolidin-1-yl-phenyl)-3H-[1,2,3]triazolo[4,5-d]pyrimidin-5-ylamino]-cyclopentanecarboxylic acid amide], for which the IC50 on GSK3α(h) and against GCN2 was less than 1 µM throughout.
Turning to `Cn1cc(-c2ccc(-n3nnc4cnc(N[C@@H]5CCN(C(=O)CCCN6CCNCC6)C5)nc43)cc2)cn1` [A271, 1-((R)-3-{3-[4-(1-methyl-1H-pyrazol-4-yl)-phenyl]-3H-[1,2,3]triazolo[4,5-d]pyrimidin-5-ylamino}-pyrrolidin-1-yl)-4-piperazin-1-yl-butan-1-one], the IC50 on GSK3α(h) and on GCN2 was less than 1 µM each time.
`COc1ccc(-n2nnc3cnc(N[C@H]4CC[C@H](CO)C4)nc32)cc1` [A111, {(1S,3S)-3-[3-(4-methoxy-phenyl)-3H-[1,2,3]triazolo[4,5-d]pyrimidin-5-ylamino]-cyclopentyl}-methanol]: the IC50 on GSK3α(h) and against GCN2 was less than 1 µM in each case.
Turning to `COc1ccc(-n2nnc3cnc(N[C@@H]4CCN(C(=O)CCN5CCN(C)CC5)C4)nc32)cc1` [A132, 1-{(R)-3-[3-(4-methoxy-phenyl)-3H-[1,2,3]triazolo[4,5-d]pyrimidin-5-ylamino]-pyrrolidin-1-yl}-3-(4-methyl-piperazin-1-yl)-propan-1-one], the IC50 on GSK3α(h) and on GCN2 was less than 1 µM each time.
For the compound `NC(=O)[C@@H]1CC[C@@H](Nc2ncc3nnn(-c4cccc(I)c4)c3n2)C1` [A176, (1R,3R)-3-[3-(3-iodo-phenyl)-3H-[1,2,3]triazolo[4,5-d]pyrimidin-5-ylamino]-cyclopentanecarboxylic acid amide], the 50% inhibitory concentration (IC50) on GSK3α(h) and on GCN2 was less than 1 µM each time.
For `COc1ccc(-n2nnc3cnc(N[C@@H]4CCN(S(N)(=O)=O)C4)nc32)cc1` [A270, (R)-3-[3-(4-methoxy-phenyl)-3H-[1,2,3]triazolo[4,5-d]pyrimidin-5-ylamino]-pyrrolidine-1-sulfonic acid amide], the half-maximal inhibitory concentration (IC50) on GSK3α(h) and on GCN2 was less than 1 µM in each case.
For the compound `NC(=O)[C@@H]1CC[C@@H](Nc2ncc3nnn(-c4ccc(-c5cnn(CCc6nnn[nH]6)c5)cc4)c3n2)C1` [A265, (1R,3R)-3-[3-(4-{1-[2-(1H-tetrazol-5-yl)-ethyl]-1H-pyrazol-4-yl}-phenyl)-3H-[1,2,3]triazolo[4,5-d]pyrimidin-5-ylamino]-cyclopentanecarboxylic acid amide], the IC50 at GSK3α(h) and at GCN2 was less than 1 µM throughout.
Regarding `COc1ccc(-n2nnc3cnc(NCCCC(N)=O)nc32)cc1` [A142, 4-[3-(4-methoxy-phenyl)-3H-[1,2,3]triazolo[4,5-d]pyrimidin-5-ylamino]-butyramide], the concentration for half-maximal inhibition (IC50) at GSK3α(h) and against GCN2 was less than 1 µM each time.
`NC(=O)[C@H]1CC[C@@H](Nc2ncc3nnn(-c4ccc5nsnc5c4)c3n2)C1` [A172, (1S,3R)-3-(3-benzo[1,2,5]thiadiazol-5-yl-3H-[1,2,3]triazolo[4,5-d]pyrimidin-5-ylamino)-cyclopentanecarboxylic acid amide]: the IC50 on GSK3α(h) and against GCN2 was less than 1 µM each time.
As to `O[C@@H]1CC[C@@H](Nc2ncc3nnn(-c4ccc(-c5cnn(CCc6nnn[nH]6)c5)cc4)c3n2)C1` (relative stereo) [A266, trans-3-[3-(4-{1-[2-(1H-Tetrazol-5-yl)-ethyl]-1H-pyrazol-4-yl}-phenyl)-3H-[1,2,3]triazolo[4,5-d]pyrimidin-5-ylamino]-cyclopentanol], the 50% inhibitory concentration (IC50) at GSK3α(h) and against GCN2 was less than 1 µM each time.
`COc1ccc(-n2nnc3cnc(N[C@H]4CCN(C(=O)CN(C)C)C4)nc32)cc1` [A91, 2-dimethylamino-1-{(S)-3-[3-(4-methoxy-phenyl)-3H-[1,2,3]triazolo[4,5-d]-pyrimidin-5-ylamino]-pyrrolidin-1-yl}-ethanone formate]: on GCN2, the 50% inhibitory concentration (IC50) fell in the range of 1 to 5 µM.
Still for that read-out and setting: to `COc1ccc(-n2nnc3cnc(N[C@@H]4CCN(C(=O)Cn5cccn5)C4)nc32)cc1` [A90, 1-{(R)-3-[3-(4-methoxy-phenyl)-3H-[1,2,3]triazolo[4,5-d]pyrimidin-5-ylamino]-pyrrolidin-1-yl}-2-pyrazol-1-yl-ethanone] belongs less than 1 µM; to `COc1ccc(-n2nnc3cnc(N[C@@H]4CC[C@H](c5ncc(C)o5)C4)nc32)cc1` [A267, [3-(4-methoxy-phenyl)-3H-[1,2,3]triazolo[4,5-d]pyrimidin-5-yl]-[(1R,3S)-3-(5-methyl-oxazol-2-yl)-cyclopentyl]-amine], less than 1 µM; to `Cn1cc(CNc2ncc3nnn(-c4ccc(Cl)c(F)c4)c3n2)cn1` [B4, [3-(4-chloro-3-fluoro-phenyl)-3H-[1,2,3]triazolo[4,5-d]pyrimidin-5-yl]-(1-methyl-1H-pyrazol-4-ylmethyl)-amine], 1 to 5 µM.
On the same count and under the same terms, to `COc1ccc(-n2nnc3cnc(NC4CCN(C(=O)CN(C)C)CC4)nc32)cc1` [A48, 2-dimethylamino-1-{4-[3-(4-methoxy-phenyl)-3H-[1,2,3]triazolo-[4,5-d]pyrimidin-5-ylamino]-piperidin-1-yl}-ethanone] belongs less than 1 µM; to `COc1ccc(-n2nnc3cnc(N[C@@H]4CCN(C(=O)CCN(C)C)C4)nc32)cc1` [A85, 3-dimethylamino-1-{(R)-3-[3-(4-methoxy-phenyl)-3H-[1,2,3]triazolo[4,5-d]-pyrimidin-5-ylamino]-pyrrolidin-1-yl}-propan-1-one formate], less than 1 µM.
`COCCOc1ccc(-n2nnc3cnc(NCCCc4ccccn4)nc32)cc1` [A68, {3-[4-(2-methoxy-ethoxy)-phenyl]-3H-[1,2,3]triazolo[4,5-d]pyrimidin-5-yl}-(3-pyridin-2-yl-propyl)-amine] yielded an IC50 at GCN2 of less than 1 µM.
As to `COc1ccc(-n2nnc3cnc(N[C@H]4CC[C@@H](NC(=O)OCc5ccccc5)C4)nc32)cc1` [A89, {(1R,3S)-3-[3-(4-methoxy-phenyl)-3H-[1,2,3]triazolo[4,5-d]pyrimidin-5-ylamino]-cyclopentyl}-carbamic acid benzyl ester], the half-maximal inhibitory concentration (IC50) at GCN2 is 1 to 5 µM.
Still for that read-out and setting: the result for `N[C@H]1CC[C@H](Nc2ncc3nnn(-c4ccc(N5CCCC5=O)cc4)c3n2)CC1` [A71, 1-{4-[5-((trans)-4-amino-cyclohexylamino)-[1,2,3]triazolo[4,5-d]pyrimidin-3-yl]-phenyl}-pyrrolidin-2-one] reads less than 1 µM; that for `COc1ccc(-n2nnc3cnc(NC4CCNCC4)nc32)cc1` [A40, [3-(4-methoxy-phenyl)-3H-[1,2,3]triazolo[4,5-d]pyrimidin-5-yl]-piperidin-4-yl-amine hydrochloride], less than 1 µM.
Still for that read-out and setting: the result for `O[C@@H]1CC[C@@H](Nc2ncc3nnn(-c4ccc(-c5cnn(Cc6cccnc6)c5)cc4)c3n2)C1` [A231, (1R,3R)-3-{3-[4-(1-pyridin-3-ylmethyl-1H-pyrazol-4-yl)-phenyl]-3H-[1,2,3]triazolo[4,5-d]pyrimidin-5-ylamino}-cyclopentanol] reads less than 1 µM; that for `COc1ccc(-n2nnc3cnc(N[C@H]4CC[C@H](S(C)(=O)=O)C4)nc32)cc1` (relative stereo) [A263, ((trans)-3-methanesulfonyl-cyclopentyl)-[3-(4-methoxy-phenyl)-3H-[1,2,3]triazolo[4,5-d]pyrimidin-5-yl]-amine], less than 1 µM; that for `COc1ccc(-n2nnc3cnc(N[C@H]4C[C@@H](NC(=O)OC(C)(C)C)C4)nc32)cc1` [A30, {cis-3-[3-(4-methoxy-phenyl)-3H-[1,2,3]triazolo[4,5-d]pyrimidin-5-ylamino]-cyclobutyl}-carbamic acid tert-butyl ester], less than 1 µM.
On the same count and under the same terms, the result for `COc1ccc(-n2nnc3cnc(N[C@@H]4CC[C@@H](N5CCCC5=O)C4)nc32)cc1` [A291, 1-{(1R,3R)-3-[3-(4-methoxy-phenyl)-3H-[1,2,3]triazolo[4,5-d]pyrimidin-5-ylamino]-cyclopentyl}-pyrrolidin-2-one] reads less than 1 µM.
The compound `COc1ccc(-n2nnc3cnc(N[C@@H]4CC[C@@H](C(=O)O)C4)nc32)cc1` [A139, (1R,3R)-3-[3-(4-methoxy-phenyl)-3H-[1,2,3]triazolo[4,5-d]pyrimidin-5-ylamino]-cyclopentanecarboxylic acid] came in with an IC50 against GCN2 of less than 1 µM.
Still for that read-out and setting: to `COCCOc1ccc(-n2nnc3cnc(NCc4cnn(C)c4)nc32)cc1` [B6, {3-[4-(2-methoxy-ethoxy)-phenyl]-3H-[1,2,3]triazolo[4,5-d]pyrimidin-5-yl}-(1-methyl-1H-pyrazol-4-ylmethyl)-amine] belongs 1 to 5 µM; to `COc1ccc(-n2nnc3cnc(NC4CCOCC4)nc32)cc1` [A3, [3-(4-methoxy-phenyl)-3H-[1,2,3]triazolo[4,5-d]pyrimidin-5-yl]-(tetrahydro-pyran-4-yl)-amine], 1 to 5 µM; to `COc1ccc(-n2nnc3cnc(N[C@H]4C[C@@H](O)C4)nc32)cc1` [A25, cis-3-[3-(4-methoxy-phenyl)-3H-[1,2,3]triazolo[4,5-d]pyrimidin-5-ylamino]-cyclobutanol], less than 1 µM.
The same measure, in the same setting: to `COC(=O)[C@@H]1CC[C@@H](Nc2ncc3nnn(-c4ccc(OC)cc4)c3n2)C1` [A113, (1R,3R)-3-[3-(4-methoxy-phenyl)-3H-[1,2,3]triazolo[4,5-d]pyrimidin-5-ylamino]-cyclopentanecarboxylic acid methyl ester] belongs less than 1 µM; to `COc1c(F)cc(-n2nnc3cnc(N[C@@H]4CC[C@@H](C(N)=O)C4)nc32)cc1F` [A163, (1R,3R)-3-[3-(3,5-difluoro-4-methoxy-phenyl)-3H-[1,2,3]triazolo[4,5-d]pyrimidin-5-ylamino]-cyclopentanecarboxylic acid amide], less than 1 µM.

Usually IC50 stands for the concentration at which inhibition is half-maximal.
